Data from paper PMC3222680 (PLoS ONE, 2011).

Key:
αWT α-βWT GlyR = molecular target: T1, αWT α-βWT GlyR (Homo sapiens, UniProt P23415+P48167, A277S/A316I/A325S/DEL290-297/G282P/I253M/I257A/I264V/I268L/I311L/I313V/INS301ECTTLAAE/L252M/L327V/M248V/M255V/M274P/M315L/P278A/Q254G/R299L/S259T/S324A/T286F/T287S/V317A/V322G/Y250F); type: cell-based
T1 construct: The α R218-Q219 and β R242-Q243 are also the joining sites for chimeras constructed between the ECD and TMD; expressed in transfected cells; host or cells: HEK293 (ATCC)
Experimental: (§1) The human GlyR α1 and β subunit cDNAs were subcloned into the pcDNA3.1zeo+ (Invitrogen) or pGEMHE [44] plasmid vectors for expression in HEK293 cells or Xenopus oocytes, respectively. Site-directed mutagenesis and chimera construction were performed using the QuickChange (Stratagene, La Jolla, CA, USA) mutagenesis and multiple-template-based sequential PCR protocols, respectively.
(§2) The effects of the hyperekplexia-mimicking mutations, K24′A, V25′A and Y27′A, were examined on GlyRs expressed in HEK293 cells (ATCC). Details of the HEK293 cell culture, GlyR expression and electrophysiological recording of the HEK293 cells are described elsewhere. Briefly, HEK293 cells were maintained in DMEM supplemented with 10% fetal bovine serum. Cells were transfected using a calcium phosphate precipitation protocol. When co-transfecting the α1 together with the β or any other chimera subunits, their respective cDNAs were combined in a ratio of 1∶10. In addition, the pEGFP-N1 (Clontech) was co-transfected to facilitate identifying the transfected cells. […] Cells were treated with external Ringer's solution and internal CsCl solution [30]. Cells were voltage-clamped at −40 mV. When the heteromeric GlyRs were expressed, the picrotoxin sensitivity was tested to confirm that the majority of receptors are heteromers, [30].
(§3) Results are expressed as mean±standard error of the mean of three or more independent experiments. […] Statistical significance was determined using the Student's t-test.

αV25′A βWT GlyR = molecular target: T2, αV25′A βWT GlyR (Homo sapiens, UniProt P23415+P48167, V305A); type: cell-based
T2 construct: expressed in transfected cells; host or cells: HEK293 (ATCC)
Experimental: as §1, §2, §3

αWT α-βK24′A GlyR = molecular target: T3, αWT α-βK24′A GlyR (Homo sapiens, UniProt P23415+P48167, A277S/G282P/I253M/I257A/I264V/I268L/K322A/L252M/M248V/M255V/M274P/P278A/Q254G/S259T/Y250F); type: cell-based
T3 construct: The α R218-Q219 and β R242-Q243 are also the joining sites for chimeras constructed between the ECD and TMD; expressed in transfected cells; host or cells: HEK293 (ATCC)
Experimental: as §1, §2, §3

αWT βY27′A GlyR = molecular target: T4, αWT βY27′A GlyR (Homo sapiens, UniProt P23415+P48167, Y325A); type: cell-based
T4 construct: expressed in transfected cells; host or cells: HEK293 (ATCC)
Experimental: as §1, §2, §3

αWT α-βY27′A GlyR = molecular target: T5, αWT α-βY27′A GlyR (Homo sapiens, UniProt P23415+P48167, A277S/G282P/I253M/I257A/I264V/I268L/L252M/M248V/M255V/M274P/P278A/Q254G/S259T/Y250F/Y325A); type: cell-based
T5 construct: The α R218-Q219 and β R242-Q243 are also the joining sites for chimeras constructed between the ECD and TMD; expressed in transfected cells; host or cells: HEK293 cells (ATCC), pcDNA3.1zeo+
Experimental: as §1, §2, §3

αV25′A α-βWT GlyR = molecular target: T6, αV25′A α-βWT GlyR (Homo sapiens, UniProt P23415+P48167, V305A); type: cell-based
T6 construct: The α R218-Q219 and β R242-Q243 are also the joining sites for chimeras constructed between the ECD and TMD; expressed in transfected cells; host or cells: HEK293 (ATCC)
Experimental: as §1, §2, §3

αV25′A αT-βWT GlyR = molecular target: T7, αV25′A αT-βWT GlyR (Homo sapiens, UniProt P23415+P48167, Q95A/V305A); type: cell-based
T7 construct: expressed in transfected cells; host or cells: HEK293 (ATCC)
Experimental: as §1, §2, §3

αWT βV25′A GlyR = molecular target: T8, αWT βV25′A GlyR (Homo sapiens, UniProt P23415+P48167, V323A); type: cell-based
T8 construct: expressed in transfected cells; host or cells: HEK293 (ATCC)
Experimental: as §1, §2, §3

αWT βWT GlyR = molecular target: T9, αWT βWT GlyR (Homo sapiens, UniProt P23415+P48167); type: cell-based
T9 construct: expressed in transfected cells; host or cells: HEK293 (ATCC)
Experimental: as §1, §2, §3

αK24′A βWT GlyR = molecular target: T10, αK24′A βWT GlyR (Homo sapiens, UniProt P23415+P48167, K304A); type: cell-based
T10 construct: expressed in transfected cells; host or cells: HEK293 (ATCC)
Experimental: as §1, §2, §3

αWT αT-βWT GlyR = molecular target: T11, αWT αT-βWT GlyR (Homo sapiens, UniProt P23415+P48167, I259R/K198I/L185M/L189N/Q95A/R196T/R263E/S182A/T188K/T194V/T261H/V256I/V258A); type: cell-based
T11 construct: expressed in transfected cells; host or cells: HEK293 (ATCC)
Experimental: as §1, §2, §3

αV25′A αB-βWT GlyR = molecular target: T12, αV25′A αB-βWT GlyR (Homo sapiens, UniProt P23415+P48167, A80Q/V305A); type: cell-based
T12 construct: expressed in transfected cells; host or cells: HEK293 (ATCC)
Experimental: as §1, §2, §3

αR19′A βWT GlyR = molecular target: T13, αR19′A βWT GlyR (Homo sapiens, UniProt P23415+P48167, R299A); type: cell-based
T13 construct: expressed in transfected cells; host or cells: HEK293 (ATCC)
Experimental: as §1, §2, §3

homomeric α1Y27′A GlyR = homomeric α1Y27′A GlyR (Homo sapiens, UniProt P23415, Y307A); settings: HEK293
Experimental: as §1, §2

[1] = αWT α-βWT, HEK293, with glycine at EC50 of α1 homomer
[2] = αV25′A βWT, HEK293, with glycine at EC50 of α1 homomer
[3] = αWT α-βK24′A, HEK293, with glycine at EC50 of α1 homomer
[4] = αWT βY27′A, HEK293, with glycine at EC50 of α1 homomer
[5] = αWT α-βY27′A, HEK293, with glycine at EC50 of α1 homomer
[6] = αV25′A α-βWT, HEK293, with glycine at EC50 of α1 homomer
[7] = αV25′A αT-βWT, HEK293, with glycine at EC50 of α1 homomer
[8] = αWT βV25′A, HEK293, with glycine at EC50 of α1 homomer
[9] = αWT βWT, HEK293, with glycine at EC50 of α1 homomer
[10] = αK24′A βWT, HEK293, with glycine at EC50 of α1 homomer
[11] = αWT αT-βWT, HEK293, with glycine at EC50 of α1 homomer
[12] = αV25′A αB-βWT, HEK293, with glycine at EC50 of α1 homomer
[13] = αR19′A βWT, HEK293, with glycine at EC50 of α1 homomer

T10 sequence (P23415 29-449 isoform P23415-2 K304A limits assumed): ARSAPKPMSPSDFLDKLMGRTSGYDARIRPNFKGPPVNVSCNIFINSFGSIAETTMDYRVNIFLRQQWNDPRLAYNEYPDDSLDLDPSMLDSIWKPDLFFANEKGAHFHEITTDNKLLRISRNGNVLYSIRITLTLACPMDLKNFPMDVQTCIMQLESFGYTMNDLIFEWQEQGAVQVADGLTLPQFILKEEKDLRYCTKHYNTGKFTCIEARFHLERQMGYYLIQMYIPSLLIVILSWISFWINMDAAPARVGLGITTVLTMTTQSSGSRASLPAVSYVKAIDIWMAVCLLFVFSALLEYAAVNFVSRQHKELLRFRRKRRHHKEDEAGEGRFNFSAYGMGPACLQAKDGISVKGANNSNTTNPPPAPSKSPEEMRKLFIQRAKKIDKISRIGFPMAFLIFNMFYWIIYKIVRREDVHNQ
T10 sequence (P48167 23-497): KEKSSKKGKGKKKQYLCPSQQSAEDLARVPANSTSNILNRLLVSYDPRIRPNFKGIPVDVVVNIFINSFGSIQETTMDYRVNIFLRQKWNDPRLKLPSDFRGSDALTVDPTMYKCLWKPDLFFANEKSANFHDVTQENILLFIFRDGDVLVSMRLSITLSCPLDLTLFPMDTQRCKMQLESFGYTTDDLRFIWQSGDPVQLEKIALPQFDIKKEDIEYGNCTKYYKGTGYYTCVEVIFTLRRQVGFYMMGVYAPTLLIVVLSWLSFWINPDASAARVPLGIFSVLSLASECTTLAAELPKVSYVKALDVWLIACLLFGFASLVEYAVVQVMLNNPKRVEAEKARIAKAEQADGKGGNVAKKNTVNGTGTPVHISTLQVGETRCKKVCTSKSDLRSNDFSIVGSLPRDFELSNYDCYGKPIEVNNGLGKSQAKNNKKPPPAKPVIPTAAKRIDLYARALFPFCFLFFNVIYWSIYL
T11 sequence (P23415 29-449 isoform P23415-2, stated change not applied): as the sequence (P23415 29-449 isoform P23415-2 K304A limits assumed) above, with A276K counted along it
T11 sequence (P48167 23-497 Q95A/S182A/L185M/T188K/L189N/T194V/R196T/K198I/V256I/V258A/I259R/T261H/R263E): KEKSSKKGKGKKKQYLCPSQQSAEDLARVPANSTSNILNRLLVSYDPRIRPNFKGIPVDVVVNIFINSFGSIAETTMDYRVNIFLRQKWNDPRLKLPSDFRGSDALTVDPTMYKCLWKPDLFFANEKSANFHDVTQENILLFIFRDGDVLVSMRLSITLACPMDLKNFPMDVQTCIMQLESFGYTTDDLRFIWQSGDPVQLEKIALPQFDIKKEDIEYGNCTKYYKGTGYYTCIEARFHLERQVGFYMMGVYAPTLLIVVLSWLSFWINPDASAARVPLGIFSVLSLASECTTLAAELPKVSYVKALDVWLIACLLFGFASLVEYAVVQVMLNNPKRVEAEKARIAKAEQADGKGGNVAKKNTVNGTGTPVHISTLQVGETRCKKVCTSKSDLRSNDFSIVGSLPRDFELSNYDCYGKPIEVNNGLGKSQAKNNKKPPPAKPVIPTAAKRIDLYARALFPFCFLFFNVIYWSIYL
T5 sequence (P23415 29-449 isoform P23415-2, stated change not applied): as the sequence (P23415 29-449 isoform P23415-2 K304A limits assumed) above, with A276K counted along it
T5 sequence (P23415+P48167 fused with the stated changes): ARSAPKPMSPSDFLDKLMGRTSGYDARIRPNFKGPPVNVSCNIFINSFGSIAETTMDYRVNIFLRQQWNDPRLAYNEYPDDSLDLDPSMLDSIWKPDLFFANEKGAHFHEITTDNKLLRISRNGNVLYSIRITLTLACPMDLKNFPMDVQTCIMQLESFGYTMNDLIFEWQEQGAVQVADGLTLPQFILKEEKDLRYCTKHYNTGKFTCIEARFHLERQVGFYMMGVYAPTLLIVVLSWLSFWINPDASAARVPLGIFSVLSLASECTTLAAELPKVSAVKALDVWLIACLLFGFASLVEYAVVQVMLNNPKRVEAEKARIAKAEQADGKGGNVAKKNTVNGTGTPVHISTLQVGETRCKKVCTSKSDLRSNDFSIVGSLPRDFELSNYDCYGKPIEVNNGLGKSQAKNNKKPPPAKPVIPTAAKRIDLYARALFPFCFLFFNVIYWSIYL
T1 sequence (P23415 29-449 isoform P23415-2, stated change not applied): as the sequence (P23415 29-449 isoform P23415-2 K304A limits assumed) above, with A276K counted along it
T1 sequence (P23415+P48167 fused with the stated changes): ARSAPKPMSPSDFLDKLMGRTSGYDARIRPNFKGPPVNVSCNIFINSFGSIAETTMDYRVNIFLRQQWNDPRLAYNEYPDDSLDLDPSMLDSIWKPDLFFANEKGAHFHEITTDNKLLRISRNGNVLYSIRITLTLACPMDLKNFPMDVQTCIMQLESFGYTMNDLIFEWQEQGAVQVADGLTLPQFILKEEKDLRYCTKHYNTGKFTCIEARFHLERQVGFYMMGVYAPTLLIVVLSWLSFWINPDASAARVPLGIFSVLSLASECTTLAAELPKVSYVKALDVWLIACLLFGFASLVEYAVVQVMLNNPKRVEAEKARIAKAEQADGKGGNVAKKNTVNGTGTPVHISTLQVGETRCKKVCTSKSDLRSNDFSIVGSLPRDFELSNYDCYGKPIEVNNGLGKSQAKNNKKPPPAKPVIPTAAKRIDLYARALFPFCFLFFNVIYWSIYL
T4 sequence (P23415 29-449 isoform P23415-2 limits assumed, stated change not applied): as the sequence (P23415 29-449 isoform P23415-2 K304A limits assumed) above, with A276K counted along it
T4 sequence (P48167 23-497 Y325A): as the sequence (P48167 23-497) above, with Y303A counted along it
homomeric α1Y27′A GlyR, sequence (P23415 29-457 Y307A): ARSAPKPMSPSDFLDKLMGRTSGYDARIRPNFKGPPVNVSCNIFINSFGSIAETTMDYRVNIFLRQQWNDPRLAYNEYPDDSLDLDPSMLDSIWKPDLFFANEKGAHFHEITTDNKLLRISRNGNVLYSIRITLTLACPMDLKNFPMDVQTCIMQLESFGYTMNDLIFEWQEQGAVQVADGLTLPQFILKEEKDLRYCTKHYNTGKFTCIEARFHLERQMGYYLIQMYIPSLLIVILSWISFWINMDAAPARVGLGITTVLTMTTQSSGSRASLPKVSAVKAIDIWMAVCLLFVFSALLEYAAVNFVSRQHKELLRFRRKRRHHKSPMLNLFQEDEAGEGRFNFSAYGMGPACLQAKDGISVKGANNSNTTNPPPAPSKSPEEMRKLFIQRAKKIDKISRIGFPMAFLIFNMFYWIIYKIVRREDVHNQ

Compound: NCC(=O)O [glycine]
- Imax (αWT α-βWT GlyR): 4.3±0.7 nA
- nH (αWT α-βWT GlyR): 1.3±0.3
- Imax (αV25′A βWT GlyR): 7.4±2.8 nA
- nH (αV25′A βWT GlyR): 1.4±0.2
- Imax (αWT α-βK24′A GlyR): 8.0±1.8 nA
- nH (αWT α-βK24′A GlyR): 1.5±0.2
- Imax (αWT βY27′A GlyR): 8.0±1.3 nA
- nH (αWT βY27′A GlyR): 2.4±0.1
- Imax (αWT α-βY27′A GlyR): 6.9±3.1 nA
- nH (αWT α-βY27′A GlyR): 1.3±0.3
- Imax (αV25′A α-βWT GlyR): 8.2±1.4 nA
- nH (αV25′A α-βWT GlyR): 0.92±0.04
- Imax (αV25′A αT-βWT GlyR): 6.0±1.7 nA
- nH (αV25′A αT-βWT GlyR): 1.4±0.2
- Imax (αWT βV25′A GlyR): 7.7±0.8 nA
- nH (αWT βV25′A GlyR): 2.0±0.6
- Imax (αWT βWT GlyR): 4.3±1.2 nA
- nH (αWT βWT GlyR): 2.0±0.4
- Imax (αK24′A βWT GlyR): 6.3±1.1 nA
- nH (αK24′A βWT GlyR): 1.8±0.2
- Imax (αWT αT-βWT GlyR): 12.0±1.6 nA
- nH (αWT αT-βWT GlyR): 2.0±0.1
- Imax (αV25′A αB-βWT GlyR): 5.5±0.9 nA
- nH (αV25′A αB-βWT GlyR): 1.1±0.0
- Imax (αR19′A βWT GlyR): 3.9±1.3 nA
- nH (αR19′A βWT GlyR): 2.5±0.3
- glycine-induced current (homomeric α1Y27′A GlyR): no glycine-induced current was detected

Compound: picrotoxin [PTX]
- 10uM PTX inhibition (%) (αWT α-βWT GlyR; [1]): 3.8±2.2%
- 100uM PTX inhibition (%) (αWT α-βWT GlyR; [1]): 25±2%
- 10uM PTX inhibition (%) (αV25′A βWT GlyR; [2]): 4.7±0.7%
- 100uM PTX inhibition (%) (αV25′A βWT GlyR; [2]): 38±3%
- 10uM PTX inhibition (%) (αWT α-βK24′A GlyR; [3]): 5.6±1.0%
- 100uM PTX inhibition (%) (αWT α-βK24′A GlyR; [3]): 35±4%
- 10uM PTX inhibition (%) (αWT βY27′A GlyR; [4]): 6.3±0.3%
- 100uM PTX inhibition (%) (αWT βY27′A GlyR; [4]): 42±2%
- 10uM PTX inhibition (%) (αWT α-βY27′A GlyR; [5]): 4.9±0.3%
- 100uM PTX inhibition (%) (αWT α-βY27′A GlyR; [5]): 39±5%
- 10uM PTX inhibition (%) (αV25′A α-βWT GlyR; [6]): 2.9±0.8%
- 100uM PTX inhibition (%) (αV25′A α-βWT GlyR; [6]): 21±5%
- 10uM PTX inhibition (%) (αV25′A αT-βWT GlyR; [7]): 3.7±1.6%
- 100uM PTX inhibition (%) (αV25′A αT-βWT GlyR; [7]): 25±4%
- 10uM PTX inhibition (%) (αWT βV25′A GlyR; [8]): 5.7±2.2%
- 100uM PTX inhibition (%) (αWT βV25′A GlyR; [8]): 36±7%
- 10uM PTX inhibition (%) (αWT βWT GlyR; [9]): 8.5±1.8%
- 100uM PTX inhibition (%) (αWT βWT GlyR; [9]): 33±9%
- 10uM PTX inhibition (%) (αK24′A βWT GlyR; [10]): 2.2±1.1%
- 100uM PTX inhibition (%) (αK24′A βWT GlyR; [10]): 20±5%
- 10uM PTX inhibition (%) (αWT αT-βWT GlyR; [11]): 3.2±0.6%
- 100uM PTX inhibition (%) (αWT αT-βWT GlyR; [11]): 25±6%
- 10uM PTX inhibition (%) (αV25′A αB-βWT GlyR; [12]): 4.8±0.6%
- 100uM PTX inhibition (%) (αV25′A αB-βWT GlyR; [12]): 27±2%
- 10uM PTX inhibition (%) (αR19′A βWT GlyR; [13]): 2.8±2.1%
- 100uM PTX inhibition (%) (αR19′A βWT GlyR; [13]): 20±9%
